According to patent publication US20090076029A1 (Palatin Technologies, Inc., priority 2007, published 2009):
Read-outs that look alike come from different tables or passages of the source.

Experiments:
MC1-R [1] = test system: T1, MC1-R; assay: cAMP functional assay, B-16 mouse melanoma cells expressing MC1-R; type: cell-based; details: cAMP assay at 1 μM
T1 construct: from B-16 mouse melanoma cells (containing MC1-R); endogenous in cells; host or cells: B-16 mouse melanoma cells
Method: (§1) General method for EC50 determination in functional activity assay. Functional evaluation of compounds at melanocortin receptors was performed by measuring the accumulation of intracellular cAMP in HEK-293 cells expressing hMC3-R, hMC4-R or hMC5-R, and in B-16 mouse melanoma cells expressing MC1-R. Cells suspended in Earle's Balanced Salt Solution containing 10 mM HEPES (pH 7.5), 5 mM MgCl2, 1 mM glutamine, 0.1% albumin and 0.6 mM 3-isobutyl-1-methyl-xanthine, a phosphodiesterase inhibitor, were plated in 96 well plates at a density of 0.5×10^5 cells per well. Cells were incubated with the test compounds in the presence or absence of α-MSH for 1 hour at 37° C. cAMP levels in the cell lysates were measured using an EIA kit (Amersham). Data analysis and EC50 values were determined using nonlinear regression analysis with Prism Graph-Pad software.
(§2) Functional status. The agonist/antagonist status with respect to MC1-R, MC-3R, MC4-R and MC5-R of certain compounds of the invention was determined.

hMC4-R [2] = test system: T2, hMC4-R; assay: cAMP functional assay in HEK-293 cells expressing MC4-R (agonist, neutral antagonist/Schild); type: cell-based, human
T2 construct: expressed in transfected cells; host or cells: HEK-293
Summary of the method: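 Cells in EBSS/HEPES pH 7.5 with 0.3 mM IBMX, exposed to compound (0.05-5000 nM, 1% DMSO) for 1 h at 37 °C; cAMP by EIA, EC50 by nonlinear regression. Antagonism: 30 min compound pre-incubation, then 1 nM NDP-α-MSH for 1 h; Schild analysis over 0.005-5000 nM agonist gives pA2.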

hMC3-R [3] = biological target: T3, hMC3-R; assay: Competitive inhibition assay using [I125]-NDP-α-MSH, hMC3-R membranes; type: binding, human; details: read-out: Ki (nM) (NDP-α-MSH) MC3-R
T3 construct: expressed in transfected cells; host or cells: HEK-293
Summary of the method: (§3)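 Single-concentration displacement (usually 1 μM compound) of 0.2–0.4 nM [125I]-NDP-α-MSH, run 90 min at room temperature in pH 7.2 HEPES containing MgCl2, CaCl2 and KCl. Receptor sources: transfected HEK-293 membranes for human MC3-R/MC4-R/MC5-R, B-16 mouse melanoma membranes for MC1-R. Bound counts normalised to 1 μM α-MSH-defined specific binding; triplicates averaged, values below 0% set to 0%.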

hMC3-R [4] = test system: T3, hMC3-R; assay: cAMP functional assay, HEK-293 cells expressing hMC3-R; type: cell-based, human; details: cAMP assay at 1 μM
Method: as §1, §2

hMC4-R [5] = biological target: T2, hMC4-R; assay: Competitive inhibition assay using [I125]-NDP-α-MSH, hMC4-R membranes; type: binding, human
MC1-R [6] = biological target: T4, MC1-R; assay: Competitive inhibition assay using [I125]-NDP-α-MSH, MC1-R membranes; type: binding, mouse
T4 construct: other: 1 μM compound

hMC4-R [7] = test system: T2, hMC4-R; type: binding, human
Summary of the method: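 Membranes from hMC4-R-expressing cells incubated 1 h at 37 °C with 0.2 nM [I^125]-AgRP (83-132) and increasing compound in 25 mM HEPES pH 7.5, 100 mM NaCl, 2 mM CaCl2, 2 mM MgCl2, 0.3 mM 1,10-phenanthroline, 0.5% BSA. Filtration, gamma counting; specific binding kept ≤10% of added counts.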

hMC5-R [8] = biological target: T5, hMC5-R; assay: Competitive inhibition assay using [I125]-NDP-α-MSH, hMC5-R membranes; type: binding, human; details: read-out: Ki (nM) (NDP-α-MSH) MC5-R
T5 construct: expressed in transfected cells; host or cells: HEK-293
Summary of the method: as §3

hMC5-R [9] = test system: T5, hMC5-R; assay: cAMP functional assay, HEK-293 cells expressing hMC5-R; type: cell-based, human; details: cAMP assay at 1 μM
Method: as §1, §2

MC4-R = test system: T6, MC4-R; assay: Assay for inverse agonist, HEK-293 cells expressing MC4-R; type: cell-based; details: FIG. 3
T6 construct: expressed in transfected cells; host or cells: HEK-293
Method: Assay for inverse agonist. […] The experimental protocol was essentially as described above. The cells were exposed to the test compounds over a concentration range of 0.05 nM to 5000 nM for 1 hour at 37° C. AgRP (83-132) was used as the reference inverse agonist. Data analysis and EC50 values were determined by using nonlinear regression analysis with the Prism Graph-Pad software.

CC(=O)N[C@H](Cc1ccc2ccccc2c1)C(=O)N1C[C@@H](CC(C)C)N(CCc2ccc3ccccc3c2)C[C@@H]1CCCNC(=N)N [Example 13, N-{2-[2(S)-(3-Guanidino-propyl)-5(R)-isobutyl-4(2-naphthalen-2-yl-ethyl)-piperazin-1-yl]-1(R)-naphthalen-2-ylmethyl-2-oxo-ethyl}-acetamide]
functional status at MC1-R (MC1-R [1]): no intrinsic activity (intrinsic activity below 0.1 (10%) is classified as inactive or having no intrinsic activity)
functional status (pAg, Ag, Antag, Inactive) (hMC4-R [2]; MC4-R, Table 1): Antag (“Antag” means antagonist)
intrinsic activity at MC4-R (hMC4-R [2]; NDP-α-MSH maximal stimulation = 1.0): no intrinsic activity
pA2 value at MC4-R (hMC4-R [2]; Schild plot vs NDP-α-MSH): 7.3
functional status at MC4-R (hMC4-R [2]; cAMP assay, mostly at 1 μM): antagonist
Ki (hMC3-R [3]): 474 nM
functional status at MC3-R (hMC3-R [4]): no intrinsic activity (intrinsic activity below 0.1 (10%) is classified as inactive or having no intrinsic activity)
Ki (hMC4-R [5]; MC4-R membranes, Table 1, read-out: Ki (nM) I125-NPD-α-MSH): 6 nM
Ki (hMC4-R [5]; read-out: Ki (nM) (NDP-α-MSH) MC4-R): 6 nM
Ki (MC1-R [6]): 4620 nM
Inhibition at 1 μM (NDP-α-MSH) MC1-R (MC1-R [6]; 1 μM compound): 0%
Inhibition at 1 μM (AgRP) MC4-R (hMC4-R [7]; 1 μM compound): 100%
Ki (hMC4-R [7]; MC4-R membranes, Table 1, read-out: Ki (nM) I125-AgRP): 3.7 nM
Ki (hMC4-R [7]; read-out: Ki (nM) (AgRP) MC4-R): 3.7 nM
Ki (hMC5-R [8]): 378 nM
functional status at MC5-R (hMC5-R [9]): partial agonist (intrinsic activity between 0.1 (10%) and 0.7 (70%) is classified as a partial agonist)
inverse agonism (basal cAMP) (MC4-R): inverse agonism
